Source: publication PMC3892053, “Pharmacokinetic/pharmacodynamic modeling for the determination of a cimicoxib dosing regimen in the dog” (BMC Veterinary Research, 2013)
Converted amounts (≈) assume the structure as drawn.

Assays:
[1] = test system: kaolin-induced paw inflammation; experiment: Kaolin paw inflammation model, observed antipyretic, analgesic and anti-inflammatory effects; format: in vivo, dog; settings: oral 2 mg/kg; for Maximum effect, analgesia (paw withdrawal time to heat stimulus): 100% = control without inflammation, 2 mg/kg; for Maximum effect, body temperature: % improvement (100% = return to control); for Total duration of the effect, body temperature: time effects superior to placebo
Source text: The 12 dogs were regularly trained to get accustomed to experimental and measurements conditions for at least one month before the beginning of the experiment. Furthermore, all the investigators involved received a special training for endpoints measurements. The paw inflammation model used was the kaolin model (1.55 g of Kaolin aseptically injected in the skin under general anesthesia, [15]). The measured endpoints used to evaluate the antipyretic, analgesic and anti-inflammatory effects of the NSAID were the body temperature, the paw circumference, the time to perform a creeping test under a tunnel, the lameness score, the vertical force of the paw on force plates (normalized to the dog’s body weight), the thermal pain threshold and the plantar skin temperature. For body temperature a single measurement was obtained at each time using an electronic thermometer. Paw circumference duplicate measures per time point was done just above the pad using a measuring tape (DMC, Colmar, France). Skin plantar temperature was measured (in degrees Celsius) using an infrared thermometer (Raynger M. Raytek, Fisher Bioblock Scientific - Illkirch – France) at a reference site on the plantar face of the paw, at six different times for each day and measures were performed in triplicate. Data used was the average of the three measurements performed at each time point. Creeping time was measured (in seconds) in a tunnel 6.38 m long, using a stopwatch (digital stopwatch) in triplicate for each time point and creeping speed (m/s) was used as the final measurement for this endpoint. Lameness score was assessed using a numerical rating scale as developed by Giraudel et al.. Vertical normalized force i.e. the maximal vertical force applied on the ground by a hind limb was measured with force plates (SATEL Veto; Patrick Savet, Blagnac, France); for each measurement time, three measures were recorded, the mean values were normalized to the dog’s body weight (Fmax/b.wt., kg/kg) and used in the data analyses. Pain was assessed using a hind paw thermal escape model. The model consisted of exposing the hind limb to a light beam delivered by a Hargreaves apparatus (model 390; IITC Inc., Woodlands Hills, CA). A heat intensity corresponding to 15% of the peak heating value of 150 W was selected. The paw withdrawal time (in seconds) was measured. For each trial, three measures were recorded per measurement time, and the mean of the three measures was used in the data analysis.
The study was conducted according to a classical 2×2 crossover design. Briefly, in period one, half of the dog (3 males and 3 females), received a single oral dose of cimicoxib (approximately 2 mg/kg, one 20 mg capsules – Vetoquinol Lure france) 26.5 h after the induction of kaolin inflammation on the left paw; the other half dogs received a placebo treatment at the same time. In period 2, treatments were crossed over for each dog and inflammation was induced on the right paw. A wash-out delay of at least 5 weeks was applied between the two periods. The treatment (cimicoxib or placebo) was blinded to the investigators.
At least three days before the induction of kaolin inflammation, the PD endpoints were measured twice on the same day to generate negative control values. These endpoints were also measured at 23.5 and 25.5 h after the induction of the inflammation (i.e. before the treatment) to generate positive control values. Subsequently, the PD endpoints were measured at 2, 4, 9, 15 hours after administration (measures on all dogs) and at 22 h and 27 h after administration depending on the presence of further cimicoxib activity.
For PD analysis, a percentage of improvement was calculated for all endpoints (except for the lameness score) following Equation 2:
(2) %improvement=T^+-M/T^+-T^-*100 […]

[2] = test system: COX-2; parameters: method as in PMID 12877584; settings: human whole blood assay, cited from earlier work
[3] = the two groups of dogs together

COc1ccc(-c2c(Cl)ncn2-c2ccc(S(N)(=O)=O)cc2)cc1F [cimicoxib]
Duration of the maximal effect, analgesia ([1]; EM dogs): 7 h (from 2.9 to 9.8 h)
Duration of the maximal effect, body temperature ([1]; EM dogs): 7 h (from 2.1 to 9.1 h)
Duration of the maximal effect, creeping speed ([1]; EM dogs): 7 h (from 2.2 to 9.2 h)
Duration of the maximal effect, paw circumference ([1]; EM dogs): 9 h (from 2.2 to 11.2 h)
Duration of the maximal effect, skin plantar temperature ([1]; EM dogs): 7 h (from 2.3 to 9.3 h)
Duration of the maximal effect, vertical normalized force ([1]; EM dogs): 6.9 h (from 2.6 to 9.5 h)
Total duration of the effect, creeping speed ([1]; EM dogs): 15 h
Total duration of the effect, paw circumference ([1]; EM dogs): 15 h
Total duration of the effect, skin plantar temperature ([1]; EM dogs): 13 h
Total duration of the effect, vertical normalized force ([1]; EM dogs): 16 h
Maximum effect, analgesia (paw withdrawal time to heat stimulus) ([1]; EM dogs): 232 ± 45%
Maximum effect, creeping speed ([1]; EM dogs, % improvement): 76 ± 9%
Maximum effect, paw circumference ([1]; EM dogs, % improvement): 14 ± 2%
Maximum effect, skin plantar temperature ([1]; EM dogs, % improvement): 38 ± 6%
Maximum effect, vertical normalized force ([1]; EM dogs, % improvement): 68 ± 7%
Maximum effect, body temperature ([1]; EM dogs): 84 ± 8%
Total duration of the effect, body temperature ([1]; EM dogs): 13 h
Duration of the maximal effect, analgesia ([1]; PM dogs): 8.8 h (from 2.9 to 11.8 h)
Duration of the maximal effect, body temperature ([1]; PM dogs): 19.6 h (from 2.1 to 21.7)
Duration of the maximal effect, clinical lameness score ([1]; PM dogs): 10.9 h (from 4.8 to 15.7 h)
Duration of the maximal effect, creeping speed ([1]; PM dogs): 11.1 h (from 4.2 to 15.3 h)
Duration of the maximal effect, paw circumference ([1]; PM dogs): 7 h (from 4.2 to 11.2 h)
Duration of the maximal effect, vertical normalized force ([1]; PM dogs): 11.1 h (from 4.5 to 15.5 h)
Maximum effect, skin plantar temperature ([1]; PM dogs): No plateau observed
Total duration of the effect, analgesia ([1]; PM dogs): 23 h
Total duration of the effect, creeping speed ([1]; PM dogs): 25 h
Total duration of the effect, paw circumference ([1]; PM dogs): 20 h
Total duration of the effect, skin plantar temperature ([1]; PM dogs): 22 h
Total duration of the effect, vertical normalized force ([1]; PM dogs): 28 h
Maximum effect, analgesia (paw withdrawal time to heat stimulus) ([1]; PM dogs): 152 ± 53%
Maximum effect, creeping speed ([1]; PM dogs, % improvement): 77 ± 7%
Maximum effect, paw circumference ([1]; PM dogs, % improvement): 15 ± 3%
Maximum effect, vertical normalized force ([1]; PM dogs, % improvement): 67 ± 6%
Maximum effect, body temperature ([1]; PM dogs): 87 ± 9%
Total duration of the effect, body temperature ([1]; PM dogs): 25 h
overall maximal effect, body temperature [1, 3]: 86%
overall maximal effect, creeping speed [1, 3]: 76%
IC50 COX-2 inhibition [2]: 0.025 µg/mL (≈ 0.0655 µM)
IC50 ([2]; read-out: IC50 COX-2 inhibition): 66 nM
